For 1 substance, Kd results are on record in paper PMC6838762 (Biophysical Journal, 2019).

The target in this assay is T1, FeuA (Bacillus subtilis, UniProt P40409, Q131C).
T1 sequence (P40409 21-317 Q131C): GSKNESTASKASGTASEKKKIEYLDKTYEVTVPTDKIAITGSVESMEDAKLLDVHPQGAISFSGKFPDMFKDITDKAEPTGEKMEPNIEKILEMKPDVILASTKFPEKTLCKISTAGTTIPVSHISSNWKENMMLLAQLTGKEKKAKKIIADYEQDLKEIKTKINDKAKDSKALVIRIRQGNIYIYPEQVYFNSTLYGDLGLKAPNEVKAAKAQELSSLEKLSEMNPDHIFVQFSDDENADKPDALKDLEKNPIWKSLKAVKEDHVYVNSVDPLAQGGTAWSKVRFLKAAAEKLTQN
It is filed as binding.

A word on the Kd: it is the free concentration of one partner at which half of the binding sites on the other are occupied at equilibrium, for simple one-to-one binding. The low end stands for higher affinity, the high end for lower affinity. ferri-bacillibactin [FeBB] yielded a Kd of 0.02 ± 0.003 µM.
